Results reported in patent EP0326331B1, “Substituted quinolines and cinnolines” (Dow AgroSciences LLC, priority 1988, dated 1989).

How the values were obtained:
Type in all cases: in vivo
[1] = tested on: Erysiphe graminis tritici (powdery mildew); test: Test 1 greenhouse foliar spray screen, powdery mildew on wheat; conditions: disease control rating, foliar spray on wheat, 400 ppm (+++ at 100 ppm)
corn rootworm = test: Mite/insect screen, CRW; conditions: percent mortality, read-out: CRW RESULTS %; for mortality at 12 ppm: CRW rate 12.00 ppm
In short: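 Stock in acetone:alcohol 1:1 + TOXIMUL R 23 g/L + TOXIMUL S 13 g/L; diluted with water to indicated concentrations; mortality (%) after standard exposure.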

[2] = tested on: Septoria tritici (leaf blotch); test: Test 1 greenhouse foliar spray screen, leaf blotch on wheat; conditions: disease control rating, foliar spray on wheat, 400 ppm (+++ at 100 ppm)
[3] = tested on: melon aphids (Aphis gossypii Glover); test: Mite/insect screen, MA; conditions: Aphis gossypii, foliar, percent mortality, foliar spray on squash, read-out: MA RESULTS %; for mortality at 200 ppm: rate 200 ppm
In short: (§1)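 First, each compound was dissolved in an emulsifier-containing acetone/alcohol mixture and diluted with water. Next, leaves were sprayed until runoff and left to dry for an hour. For southern armyworm, two excised uninfested leaves went into a Petri dish with larvae; percent mortality followed standard exposure periods.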

[4] = tested on: Venturia inaequalis (apple scab); test: Test 1 greenhouse foliar spray screen, apple scab on apple seedling; conditions: disease control rating, foliar spray on apple seedling, 400 ppm (+++ at 100 ppm)
[5] = tested on: Pseudoperonospora cubensis (downy mildew); test: Test 1 greenhouse foliar spray screen, downy mildew on squash; conditions: disease control rating, foliar spray on squash, 400 ppm (+++ at 100 ppm)
[6] = tested on: southern armyworm (Spodopetra eridania Cramer); test: Mite/insect screen, SAW; conditions: Spodoptera eridania, foliar, percent mortality, foliar spray on squash, read-out: SAW RESULTS %; for mortality at 200 ppm: rate 200 ppm
In short: as §1

[7] = tested on: Botrytis cinerea (gray mold); test: Test 1 greenhouse foliar spray screen, gray mold on grape berries; conditions: disease control rating, spray on grape berries, 400 ppm (+++ at 100 ppm)
[8] = tested on: Pyricularia oryzae (rice blast); test: whole plant or invertebrate; conditions: disease control rating, foliar spray on rice, 400 ppm (+++ at 100 ppm)
[9] = tested on: Twospotted spider mites (Tetranychus urticae Koch); test: Mite/insect screen, SM; conditions: Tetranychus urticae, foliar, percent mortality, foliar spray on squash, read-out: SM RESULTS %; for mortality at 200 ppm: rate 200 ppm
In short: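 Read-out: percent mortality after standard exposure periods. Test solutions were water dilutions of compound dissolved in acetone/alcohol (50:50) with emulsifier blends; leaves were sprayed to runoff on both surfaces and air-dried for one hour before exposure.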

[10] = tested on: Puccinia recondita tritici (leaf rust); test: Test 1 greenhouse foliar spray screen, leaf rust on wheat; conditions: disease control rating, foliar spray on wheat, 400 ppm (+++ at 100 ppm)
[11] = tested on: Cercospora beticola (leaf spot); test: Test 1 greenhouse foliar spray screen, leaf spot on sugar beet; conditions: disease control rating, foliar spray on sugar beet, 400 ppm (+++ at 100 ppm)

| Structure (SMILES) | POWD MDEW [1] | mortality at 12 ppm (corn rootworm) [%] | mortality at 24 ppm (corn rootworm; CRW rate 24.00 ppm) [%] | LEAF BLOT [2] | mortality at 200 ppm [3] [%] | mortality at 400 ppm ([3]; rate 400 ppm) [%] | APPL SCAB [4] | DOWN MDEW [5] | mortality at 200 ppm [6] [%] | mortality at 400 ppm ([6]; rate 400 ppm) [%] | GRAY MOLD [7] | RICE BLAST [8] | mortality at 200 ppm [9] [%] | mortality at 400 ppm ([9]; rate 400 ppm) [%] | LEAF RUST [10] | LEAF SPOT [11] |
| --- | --- | --- | --- | --- | --- | --- | --- | --- | --- | --- | --- | --- | --- | --- | --- | --- |
| FC(F)(F)c1ccc2c(NCCc3ccc4ccccc4c3)ccnc2c1 [Example 169, N-[2-(2-naphthyl)ethyl]-7-(trifluoromethyl)-4-quinolinamine] | + (20-89% control at 400 ppm) | 0 | 0 | - (0-19% control at 400 ppm) | 0 | 0 | - (0-19% control at 400 ppm) | ++ (90-100% control at 400 ppm) | 0 | 0 | - (0-19% control at 400 ppm) | ++ (90-100% control at 400 ppm) | 0 | 0 | + (20-89% control at 400 ppm) | - (0-19% control at 400 ppm) |
| CC(Cc1cccs1)Nc1ccnc2c(F)cccc12 (stereo not shown) [Example 170, 8-fluoro-N-[1-methyl-2-(2-thienyl)ethyl]-4-quinolinamine] | + (20-89% control at 400 ppm) | 0 | – | - (0-19% control at 400 ppm) | 0 | – | - (0-19% control at 400 ppm) | + (20-89% control at 400 ppm) | 0 | – | - (0-19% control at 400 ppm) | + (20-89% control at 400 ppm) | 0 | – | ++ (90-100% control at 400 ppm) | - (0-19% control at 400 ppm) |
| CC(Cc1cccs1)Nc1ccnc2ccccc12 (stereo not shown) [Example 171, N-[1-methyl-2-(2-thienyl)ethyl]-4-quinolinamine] | - (0-19% control at 400 ppm) | 0 | – | + (20-89% control at 400 ppm) | 0 | – | - (0-19% control at 400 ppm) | + (20-89% control at 400 ppm) | 0 | – | - (0-19% control at 400 ppm) | + (20-89% control at 400 ppm) | 0 | – | + (20-89% control at 400 ppm) | + (20-89% control at 400 ppm) |
| Clc1cccc2c(NCCc3cccs3)ccnc12 [Example 172, 8-chloro-N-[2-(2-thienyl)ethyl]-4-quinolinamine] | + (20-89% control at 400 ppm) | 0 | – | - (0-19% control at 400 ppm) | 0 | – | - (0-19% control at 400 ppm) | + (20-89% control at 400 ppm) | 0 | – | - (0-19% control at 400 ppm) | + (20-89% control at 400 ppm) | 0 | – | + (20-89% control at 400 ppm) | - (0-19% control at 400 ppm) |
| Fc1cccc2c(NCCC3COc4ccccc4O3)ccnc12 (stereo not shown) [Example 174, N-[2-(2,3-dihydro-1,4-benzodioxin-2-yl)ethyl]-8-fluoro-4-quinolinamine] | + (20-89% control at 400 ppm) | 0 | – | + (20-89% control at 400 ppm) | 0 | – | - (0-19% control at 400 ppm) | +++ (90-100% control at 100 ppm) | 0 | – | - (0-19% control at 400 ppm) | + (20-89% control at 400 ppm) | 0 | – | ++ (90-100% control at 400 ppm) | - (0-19% control at 400 ppm) |
